This is an account of results in US20200230126A1, “TARGETED THERAPEUTICS” (TARVEDA THERAPEUTICS, INC., priority 2017, published 2020).

The nature of series [1]: In-use stability study of dosing solutions in 5% Mannitol (mixing container, syringe pump, administration set). The class given is physicochemical. As to the method:
In this study, SDC-TRAP-0063 sodium was dissolved in 5% Mannitol within the concentration range of 3-12 mg/mL. The stabilities of the SDC-TRAP-0063/Mannitol solution in an infusion container and during administration via a syringe pump were studied.
Dosing solutions of 3, 6 and 12 mg/mL of SDC-TRAP-0063 Na were prepared in 250 mL Intravia mixing containers. Pre-determined numbers of vials of SDC-TRAP-0063 Na were re-constituted with WFI and SDC-TRAP-0063 Na was transferred into mixing containers containing 5% mannitol. Each preparation was performed in duplicate.
An in-use test was performed to simulate the clinical infusion process. Freshly prepared dosing solutions were withdrawn from the Intravia containers with the specified syringe size and volume, plus an additional 2 mL for flushing the administration set. The volume of the IV administration set is O.7 mL; the 2 mL flush volume was selected according to standard pharmacy practice. After the administration set was flushed, the syringe was placed on a syringe pump and held at room temperature for 4 hours followed by a 2-hour infusion process. For the 15 mg dose level the simulation infusion was for 1 hour, because the minimal infusion rate specified by clinic was not less than 5 mL/hour. Samples were collected from the mixing containers at T0 and T2 hours and from the administration sets at T0 and from the bulk container at the end of infusion, at T5 hours for 15 mg sample and at T6 hours for all other samples, as outlined in Table 8.
A flexible bracketing design, intended to cover possible syringe volumes from 10 to 60 mL of nominal volumes, possible variation of the syringe fill volumes from 10 to 75% of the nominal syringe volume and concentration ranges of the dosing solutions from 3 to 12 mg/ml was executed in this study. The maximum fill volume for each syringe is limited to 75% of the nominal volume.

Series [2] in a line: pH of reconstituted solution and dosing solutions. It counts as physicochemical. On the procedure:
The reconstituted solution of SDC-TRAP-0063 Sodium has a pH of about 10.0. This solution is diluted to the target dose in 5% Mannitol, USP. The pH of the infusion solution depends on the concentration of SDC-TRAP-0063 Sodium in the diluted infusion solution. Across the dose ranges employed in the clinical study protocol, the volume of the diluted infusion solution administered will range from 50 to 500 mL, and the pH will range from 8.1 to 9.6. In order to reduce the potential risks of injection site pain and/or damage to the venous endothelium during IV administration, a central venous access line is used for administration of the diluted SDC-TRAP-0063 Sodium.
A new, more robust and patient-friendly formulation of dosing solution was developed. During this development, it was established that the pH of the dosing solution is driven by the concentration of SDC-TRAP-0063 Sodium and increasing the SDC-TRAP-0063 Sodium concentration allows better control of the solubility and pH of dosing solutions.
It is believed that a common ion effect is decreasing the solubility of SDC-TRAP-0063 Sodium in 0.9% Sodium Chloride solution.

SMILES strings stand for the structures.

Take `CCc1c2c(nc3ccc(OC(=O)N4CCC(CCn5ccc6cc(-n7c(O)nnc7-c7cc(C(C)C)c(O)cc7O)ccc65)CC4)cc13)-c1cc([C@@](O)(CC)C(=O)[O-])c(CO)c(=O)n1C2.[Na+]` [SDC-TRAP-0063 Sodium, Sodium (S)-2-(2-((4-(2-(5-(3-(2,4-dihydroxy-5-isopropylphenyl)-5-hydroxy-4H-1,2,4-triazol-4-yl)-1H-indol-1-yl)ethyl)piperidine-1-carbonyl)oxy)-12-ethyl-8-(hydroxymethyl)-9-oxo-9,11-dihydroindolizino[1,2-b]quinolin-7-yl)-2-hydroxybutanoate]: the total impurities result in series [1] (2-hour storage in mixing containers and total of 6 hours simulated hold and infusion (5 hours for 15 mg dose)) is “within the acceptable ranges”. Besides, the HPLC assay values result in series [1] (3, 6 and 12 mg/mL, samples collected during the study) was “did not show any trends and were within expected ranges”. In addition, the “appearance of test samples” value in series [1] (3, 6 and 12 mg/mL, up to 6 hours) is “clear solutions essentially free of particles”. In addition, in series [1] (concentration range of 3-12 mg/mL), the in-use stability profile result is listed as “acceptable stability profile”. Further, the “pH observed for dosing solutions” value in series [2] (0.9% Sodium chloride) was 8.6-8.7. Moreover, in series [2] (5% Mannitol), the “pH range observed for dosing solutions” value was 9.4-10.2. Also, in series [2] (5% Mannitol, concentrations from 3-12 mg/mL), the “observed pH for all dosing solutions” value was at least 9.4.
